Measurements from patent US20220257684A1, “ANTI-COCCIDIAL PHYTOGENIC FORMULATIONS” (priority 2019, published 2022).
Values joined by “and” are separate entries in the source; they are usually repeats but may differ in a detail not shown here. Equal values may be shown once. Marks after values point to notes of the source that are not given here.

How the values were obtained:
E. tenella oocysts = test: Sporulation assay; assay type: cell-based, Eimeria tenella; settings: positive control, FIG. 2A
Description: FIGS. 2A-C are photomicrographs (upper panels) and bar graphs (lower panels) illustrating the in vitro effects of formulations comprising A. indica (AI), B. pilosa (BP), or a mixture of A. indica (AI) and B. pilosa (BP) on viability of E. tenella (ET) oocysts and its sporulation. The oocysts were pre-treated with PBS, sodium dithionite (SD), an inhibitor of oocyst sporulation or plant extracts containing AI (2A), BP (2B), or both AI and BP (2C) at the indicated dosages for 48 h. The oocysts were induced to sporulate by potassium dichromate for 2 days. The percentage of sporulating oocysts was counted using a microscope ([…]) and plotted into bar graphs (right panel); scale bar is 200 μm. Arrow indicates sporulating oocysts whilst arrowhead indicates non-sporulating oocysts.
Sporulation assay. The E tenella oocysts were pre-treated with PBS, boiling (100° C. for 30 min) or plant extracts at indicated doses for 48 h. The oocysts were incubated with 2% potassium dichromate for 2 days before sporulation. The percentage of sporulating oocysts (%) was counted.
The effects of the plant extracts on sporulation of E. ET oocysts were tested. Seventy percent of ET oocysts were able to sporulate in the in vitro culture (PBS, FIG. 2A). […]

[1] = system: E. tenella (ET) sporozoites invading Madin-Darby bovine kidney (MDBK) cells; test: Invasion assay (sporozoite entry into MDBK cells); assay type: cell-based, Eimeria tenella; settings: at 50 μg/ml; untreated invasion 20% of the cells
Description: FIGS. 3A-C are photomicrographs (left panels) and bar graphs (right panels) illustrating the in vitro effects of formulations composed of A. indica (AI), B. pilosa (BP), or a mixture of A. indica (AI) and B. pilosa (BP) on E. tenella (ET) sporozoite invasion. Madin-Darby bovine kidney (MDBK) cells were incubated with salinomycin (Sal), or plant extracts containing A. indica (AI)(3A), B. pilosa (BP) (3B) or a mixture of AI and BP (3C) at indicated dosages for 0.5 h. The sporozoites were added to the MDBK cells for […]. After washing, the MDBK cells were stained with hematoxylin and eosin (H&E) and counted. The invasion percentage (%) was plotted into bar graphs. The inset represents a magnified area. Scale bars of microscope in 100× and 40× (inset) are 10 μm and 50 μm (inset), respectively. Arrowhead indicates the MDBK cells infected with sporozoites.
Invasion assay. Madin-Darby bovine kidney (MDBK, ATCC® CCL-22) cells, grown in DMEM containing fetal bovine serum (10%) and supplements, were seeded onto glass cover slips in 24 wells at 2×10^5 cells/well. One day later, the cells were pre-incubated with DMEM medium containing salinomycin, or plant extracts and phytochemicals at doses indicated for 0.5 h. Fresh sporozoites (2×10^5) were added to the cells for additional 4 h. […]

[2] = system: E. tenella challenged chickens; test: Survival rate in E. tenella challenged chickens; assay type: in vivo, chicken; settings: ET-infected chickens (1×10^4 oocysts), substance in feed; infected standard feed 60%; FIG. 4B
Text: (§1) FIG. 4A is a schematic drawing showing the experimental protocol used in in vivo studies. Birds in untreated groups had daily access to standard diet, and birds in treated groups were fed with diet containing salinomycin, A. indica (AI), B. pilosa (BP), or a mixture of AI plus BP. On day 7, chickens were challenged with PBS or E. tenella (ET) sporulated oocysts (1×10^4) by gavage. The survival rate in each group was monitored from day 1 to 7 post infection.
FIG. 4B is a graph showing survival rate in each group of FIG. 4A. Chickens were divided into eight groups: Group 1 (G1), uninfected and fed with a standard diet; Group 2 (G2), ET-infected and fed with a standard diet; Group 3 (G3) to Group 8 (G8), ET-infected and fed with diet containing salinomycin, BP alone, a combination of BP and different dosages of AI, or AI alone without BP as indicated. Each group has 15 chicks and P values are indicated.
Birds, diets, and experimental design. One-day-old Lohmann broiler chicks hatched at Taichung Hatchery (Taiwan) were wing-banded upon arrival, weighed, and randomly placed in Petersime starter brooder units. At 1 to 2 days post-hatching, the birds were given free access to water and diets. […] Growth performance (body weight and feed conversion), pathology (bloody droppings and gut morphometry) and survival rate were measured and examined (FIG. 4A). […]

[3] = system: E. tenella challenged chickens; test: Body weight gain in E. tenella challenged chickens; assay type: in vivo, chicken; settings: BP alone 0.01%, AI alone 0.01%
Text: as §1
(§2) Birds, diets, and experimental design. One-day-old Lohmann broiler chicks hatched at Taichung Hatchery (Taiwan) were wing-banded upon arrival, weighed, and randomly placed in Petersime starter brooder units. At 1 to 2 days post-hatching, the birds were given free access to water and diets. The diets were formulated by mixing a base diet with a carrier alone (control diet) or with an indicated dose of a phytogenic formulation comprising Artemisia indica (AI), B. pilosa (BP), or both AI and BP. After grouping, birds were tube-fed with Eimeria oocysts to get infection. Growth performance (body weight and feed conversion), pathology (bloody droppings and gut morphometry) and survival rate were measured and examined (FIG. 4A). […]
Body weights (BW) of the chickens from FIG. 4B were monitored on Days 1, 7 and 14, and body-weight (BW) gains were calculated on Days 7 and 14. […]

[4] = system: E. tenella challenged chickens; test: Feed conversion rate in E. tenella challenged chickens; assay type: in vivo, chicken; settings: BP alone 0.01%, AI alone 0.01% in feed
Text: as §1
as §2, with “4A). All birds were maintained in the institutional animal facility and handled according to institutional guidelines.” for “4A).”

[5] = system: E. tenella challenged chickens; test: Fecal oocyst excretion in E. tenella challenged chickens; assay type: in vivo, chicken
Text: as §1
(§3) Birds, diets, and experimental design. One-day-old Lohmann broiler chicks hatched at Taichung Hatchery (Taiwan) were wing-banded upon arrival, weighed, and randomly placed in Petersime starter brooder units. At 1 to 2 days post-hatching, the birds were given free access to water and diets. The diets were formulated by mixing a base diet with a carrier alone (control diet) or with an indicated dose of a phytogenic formulation comprising Artemisia indica (AI), B. pilosa (BP), or both AI and BP. After grouping, birds were tube-fed with Eimeria oocysts to get infection. Growth performance (body weight and feed conversion), pathology (bloody droppings and gut morphometry) and survival rate were measured and examined (FIG. 4A). All birds were maintained in the institutional animal facility and handled according to institutional guidelines.
(§4) The anti-coccidial effects of the extracts of A. indica (AI), B. pilosa (BP) and a combination of both extracts were examined in vivo. Chickens were randomly divided into 8 groups and given daily (Day 1 to Day 14) access to standard chicken feed (Groups 1 and 2), feed containing salinomycin (Group 3), or feed containing the plant extracts (Groups 4 to 8) at the indicated doses (FIG. 4A).
Excretion of Eimeria oocysts in the feces of ET-infected chickens is an indicator of Eimeria multiplication. The oocysts per gram feces (OPG) in the chickens from FIG. 4B were counted from Day 3 to Day 7 post ET infection. No oocysts in the feces were detected in the uninfected unmedicated control group (Group 1, Table 3). Fecal oocyst excretion was first detected on Day 4 post infection in all the ET-infected groups and reached its peak on Day 7 post infection (Group 2).

[6] = system: E. tenella challenged chickens; test: Gross cecal lesion scores in E. tenella challenged chickens; assay type: in vivo, chicken; settings: ceca, Day 7 post ET infection
Text: as §1, §3, §4
Gross lesions in the ceca of the chickens from FIG. 4B were examined and scored. The uninfected unmedicated control chickens (Group 1, Table 4) had no lesions in the ceca (score=0). The ET infection caused more gross cecal lesions in the gut of unmedicated chickens, as evidenced by an average lesion score of 4 (Group 2) on Day 7 post infection.

[7] = system: E. tenella challenged chickens; test: Microscopic cecal lesion scores and histology in E. tenella challenged chickens; assay type: in vivo, chicken; settings: ceca, Day 7 post ET infection
Text: as §1, §3
Immunohistochemical staining. Multiple parallel sections of the ceca from chickens that had access to control diet and the diet containing Artemisia indica (AI), B. pilosa (BP), or both for 14 days were flash-frozen. The sections were stained with H&E or anti-insulin antibody, with development of diaminobenzidine tetrahydrochloride, followed by image analysis (Yang et al. Research in Veterinary Science (2015) 98:74-81).
as §4
Mucosal damages caused by coccidia were examined under microscope and scored as microscopic cecal lesions based on the distribution and severity of the mucosal destructions in the chicken cecum.

[8] = system: E. tenella challenged chickens; test: Bloody stools in E. tenella challenged chickens; assay type: in vivo, chicken; settings: Day 7 post ET infection, versus infected unmedicated birds (100%), FIG. 5
Text: as §1
FIG. 5 is a bar graph showing percentage of bloody stools in each chicken group of FIG. 4A-B on Day 7 post E. tenella (ET) infection. Chicken stools were classified on Day 1 to Day 7 post infection.
as §2

O=S([O-])S(=O)[O-].[Na+].[Na+] [sodium dithionite]
reduction of sporulation of ET oocysts as compared to the PBS treatment group (E. tenella oocysts): 40%

CC[C@@H](C(=O)[C@@H](C)[C@@H](O)[C@H](C)[C@@H]1O[C@@H]([C@@H](CC)C(=O)O)CC[C@@H]1C)[C@H]1O[C@]2(C=C[C@@H](O)[C@]3(CC[C@@](C)([C@H]4CC[C@](O)(CC)[C@H](C)O4)O3)O2)[C@H](C)C[C@@H]1C [salinomycin, Salinomycin]
ET sporozoite invasion (invasion percentage of MDBK cells) [1]: 10%
survival rate [2]: 100%
BWG (g) Day 7-1 ([3]; body weight Day 7 minus Day 1, prior to ET infection, substance in feed from Day 1): 27.64 ± 1.16 g
BWG (g) Day 14-1 ([3]; body weight Day 14 minus Day 1, ET oocysts (1×10^4) on Day 7, substance in feed Day 1 to 14): 56.33 g and 56.33 ± 3.15 g
FCR Day 7-1 ([4]; feed intake (Kg) divided by body weight gain on day 7, prior to ET infection): 2.42 ± 0.08
FCR Day 14-1 ([4]; feed intake (Kg) divided by body weight gain on day 14, ET-infected): 3.05 and 3.05 ± 0.13
oocysts per gram of feces versus infected unmedicated birds (Group 2), result in words ([5]; Day 3 to Day 7 post ET infection): slightly less oocysts per gram of feces
Ln(OPG ± 1), 3 days post-infection ([5]; oocysts per gram feces, Day 3 post ET infection, BP alone 0.01%, AI alone 0.01% in feed): 0 ± 0
Ln(OPG ± 1), 4 days post-infection ([5]; oocysts per gram feces, Day 4 post ET infection, BP alone 0.01%, AI alone 0.01% in feed): 3.45 ± 0.16^a,b
Ln(OPG ± 1), 5 days post-infection ([5]; oocysts per gram feces, Day 5 post ET infection, BP alone 0.01%, AI alone 0.01% in feed): 4.49 ± 0.02^a,b
Ln(OPG ± 1), 6 days post-infection ([5]; oocysts per gram feces, Day 6 post ET infection, BP alone 0.01%, AI alone 0.01% in feed): 4.89 ± 0.01^a,b
Ln(OPG ± 1), 7 days post-infection ([5]; oocysts per gram feces, Day 7 post ET infection, BP alone 0.01%, AI alone 0.01% in feed): 5.33 ± 0.01^a,b
Gross lesion score 0: number of chickens ([6]; chickens in grade / n): 0/15
Gross lesion score 1: number of chickens ([6]; chickens in grade / n): 0/15
Gross lesion score 2: number of chickens ([6]; chickens in grade / n): 0/15
Gross lesion score 3: number of chickens ([6]; chickens in grade / n): 1/15
Gross lesion score 4: number of chickens ([6]; chickens in grade / n): 6/15
Gross lesion score, Average ([6]; infected unmedicated 4.00, BP alone 0.01%, AI alone 0.01% in feed): 3.86 and 3.86 ± 0.10
Microscopic lesion score 0 (fraction) [7]: 0/15
Microscopic lesion score 1 (fraction) [7]: 0/15
Microscopic lesion score 3 (fraction) [7]: 0/15
Microscopic lesion score 5 (fraction) [7]: 0/15
Microscopic lesion score 7 (fraction) [7]: 2/15
Microscopic lesion score, Average ([7]; infected unmedicated 7.20, BP alone 0.01%, AI alone 0.01% in feed): 6.29 and 6.29 ± 0.13
percentage of bloody stools [8]: significantly decrease in the percentage of bloody stools
